From patent publication US20120040998A1, “2-ALKYL PIPERIDINE MGLUR5 RECEPTOR MODULATORS” (priority 2009, published 2012) come the findings set out here.

SMILES strings stand for the structures. Where two headings read alike, the source gives them in different places.

The assay deals with T1, human mGluR5A (Homo sapiens, UniProt P41594).
T1 construct: expressed in transfected cells
The assay can be described thus: FLIPR Ca2+ mobilization assay, potentiation in the presence of 300 nM glutamate (EC20). Format: cell-based. An excerpt:
The utility of the compounds in accordance with the present invention as positive allosteric modulators of metabotropic glutamate receptor activity, in particular mGluR5 activity, may be readily determined without undue experimentation by methodology well known in the art, including O'Brien et al., Molecular Pharmacology 2003, 64(3) 731-740. In particular, the compounds of the following examples had activity in reference assays by enhancing mGluR5 activity. […] Changes in intracellular Ca^2+ were measured with Fluo-4AM ester (Invitrogen/Molecular Probes), which was detected on a Fluorometric Imaging Plate Reader (FLIPR, Molecular Devices, Sunnyvale, Calif.). In a typical experiment the mGluR5 positive allosteric modulatory activity of the compounds of the present invention was determined in accordance with the following experimental method.
Cell Culture: Chinese Hamster Ovary (CHO) cells expressing human mGluR5A were maintained in growth medium containing DMEM, 10% dialyzed Fetal Bovine Serum, 50 units/mL Penicillin, 50 ug/mL Streptomycin, 2 mM L-glutamine, 1×MEM non-essential amino acids, 1 mM sodium pyruvate, 25 mM HEPES, 55 uM 2-mercaptoethanol, 5 ug/mL Puromycin, and 250 ug/mL Zeocin at 37° C. and 5% CO2. The day before the experiment, the cells were washed and seeded in “plating media” containing only DMEM, 10% dialyzed Fetal Bovine Serum, 50 units/mL Penicillin, and 50 ug/mL Streptomycin at a density of 50,000 cells/well (100 uL/well) in black 384-well clear-bottom PDL-coated plates. The cells were grown overnight at 37° C. and 6% CO2. This overnight glutamine/glutamate starvation allowed for consistent expression of the mGluR5A receptor, and the ability to add a known amount of agonist (glutamate in most cases) on the day of the experiment.
Fluorescent Ca^2+ mobilization (FLIPR) assay: The day of the experiment, the cells were washed with 37° C. Assay Buffer (Hanks Balanced Salt Solution with CaCl2 and MgCl2, 20 mM HEPES, 2.5 mM Probenecid, 0.1% BSA) with an automated plate washer (3×100 uL, aspiration 3 mm from bottom leaving ˜30 uL of buffer in each well). After washing, 30 uL of dye loading buffer (4 uM Fluo-4AM, 0.04% Pluronic acid, and 1% dialyzed FBS in assay buffer) were added to each well of the plates for 2 uM Fluo-4AM final concentration. The plates were incubated at 37° C. and 6% CO2 for 1 hour to allow for dye loading. After dye loading, the cells were washed again as above, and placed on the FLIPR. Assays were conducted with two possible scenarios: 1) To determine the potencies of the compounds, as either agonists of mGluR5 or potentiators of mGluR5 in the presence of a sub-threshold amount of glutamate, 10-point titrations of the compounds (1:3 dilution between each point, 30-0.0015 uM final concentrations) were added to the cells, followed by the addition of the EC20 of glutamate (300 nM) to the cells. 2) To determine the cooperativity of the compounds with the natural agonist (glutamate), single concentrations of the compounds were added to the cells, followed by the addition of a 10-point titration of glutamate (1:3 dilution between each point, 1000-0.05 uM final concentrations). […] For both scenarios above, operation of the FLIPR was the same. Baseline fluorescence was monitored for 10 seconds, followed by the addition of compounds diluted in Assay Buffer (1% DMSO concentration after this addition, 0.66% final DMSO concentration after agonist addition). After monitoring fluorescence for 5 minutes, during which time any intrinsic agonist activity of the compounds would have been detected, the agonist (glutamate) also diluted in assay buffer was then added to the cells. The response was then monitored for an additional 3 minutes. In scenario #1, the peak during the final 3 minutes was used for potentiator data, and the peak during the 5 minutes post compound addition was used for compound agonist data. […]
In general terms: Calcium assays in cells follow changes in intracellular calcium, usually with a dye or a luminescent sensor.

The mark [1] stands for this setting: potentiation in presence of 300 nM glutamate, read-out: EC50 in potentiating/enhancing the mGluR5 receptor in the FLIPR assay.
The mark [2] stands for this setting: potentiation, CHO cells expressing human mGluR5A, in presence of 300 nM glutamate, inflection points, read-out: FLIPR EC50.

T1 sequence (P41594 21-1180 isoform P41594-2 limits assumed): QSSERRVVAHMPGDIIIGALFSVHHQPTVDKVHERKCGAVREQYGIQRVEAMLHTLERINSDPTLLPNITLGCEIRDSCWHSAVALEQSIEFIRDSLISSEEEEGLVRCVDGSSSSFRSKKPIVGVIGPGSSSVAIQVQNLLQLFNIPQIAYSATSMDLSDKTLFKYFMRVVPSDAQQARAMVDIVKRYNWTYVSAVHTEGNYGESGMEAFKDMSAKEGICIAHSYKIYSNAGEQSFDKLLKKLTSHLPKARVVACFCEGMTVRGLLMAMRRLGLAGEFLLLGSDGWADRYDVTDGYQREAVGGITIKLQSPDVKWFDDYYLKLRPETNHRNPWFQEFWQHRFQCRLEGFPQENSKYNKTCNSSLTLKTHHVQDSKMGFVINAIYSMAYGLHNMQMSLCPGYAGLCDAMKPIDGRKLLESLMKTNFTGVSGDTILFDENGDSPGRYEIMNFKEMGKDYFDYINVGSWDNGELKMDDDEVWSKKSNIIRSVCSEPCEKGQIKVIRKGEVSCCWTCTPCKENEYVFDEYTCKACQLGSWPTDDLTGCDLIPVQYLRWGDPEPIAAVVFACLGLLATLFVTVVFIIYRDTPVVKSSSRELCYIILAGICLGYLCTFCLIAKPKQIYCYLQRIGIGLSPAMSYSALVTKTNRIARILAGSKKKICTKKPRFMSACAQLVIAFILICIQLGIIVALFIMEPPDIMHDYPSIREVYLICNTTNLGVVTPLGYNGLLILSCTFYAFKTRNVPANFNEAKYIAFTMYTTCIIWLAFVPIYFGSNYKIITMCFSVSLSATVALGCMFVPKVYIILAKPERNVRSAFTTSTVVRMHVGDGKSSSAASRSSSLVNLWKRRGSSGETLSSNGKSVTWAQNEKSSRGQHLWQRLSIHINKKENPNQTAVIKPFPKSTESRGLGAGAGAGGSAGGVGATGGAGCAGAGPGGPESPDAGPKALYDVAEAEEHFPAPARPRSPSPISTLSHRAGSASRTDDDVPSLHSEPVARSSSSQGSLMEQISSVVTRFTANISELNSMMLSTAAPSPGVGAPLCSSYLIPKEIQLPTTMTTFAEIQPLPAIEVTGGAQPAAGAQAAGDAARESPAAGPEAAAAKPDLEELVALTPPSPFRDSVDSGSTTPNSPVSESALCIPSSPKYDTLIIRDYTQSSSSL

Take `C[C@@H]1CC[C@H](c2nc(-c3cc(Cl)c[nH]3)no2)CN1C(=O)c1ccc(F)cc1` [Example 5-5, (2R,5S)-5-[3-(4-Chloro-1H-pyrrol-2-yl)-1,2,4-oxadiazol-5-yl]-1-(4-fluorobenzoyl)-2-methylpiperidine]: the EC50 by setting is: under setting [1], under 1000 nM; under setting [2], 19 nM.
For `COc1cc(C(=O)N2C[C@@H](c3nc(-c4cc(Cl)c[nH]4)no3)CC[C@H]2C)ccn1` [Example 9-22, 4-({(2R,5S)-5-[3-(4-chloro-1H-pyrrol-2-yl)-1,2,4-oxadiazol-5-yl]-2-methylpiperidin-1-yl}carbonyl)-2-methoxypyridine] the same measures were under 1000 nM and 55 nM.
On the same counts, the results for `C[C@@H]1CC[C@H](c2noc(-c3cc(Cl)c[nH]3)n2)CN1C(=O)c1ccc(F)cc1` [Example 2-4, (2R,5S)-5-[5-(4-chloro-1H-pyrrol-2-yl)-1,2,4-oxadiazol-3-yl]-1-(4-fluorobenzoyl)-2-methylpiperidine] are under 1000 nM and 25 nM.
For `C[C@@H]1CC[C@H](c2noc(-c3cc(Cl)c[nH]3)n2)CN1C(=O)c1ccc(F)nc1` [Example 9-9, 5-({(2R,5S)-5-[5-(4-chloro-1H-pyrrol-2-yl)-1,2,4-oxadiazol-3-yl]-2-methylpiperidin-1-yl}carbonyl)-2-fluoropyridine] the same measures were under 1000 nM and 146 nM.
Turning to `C[C@@H]1CC[C@H](c2nc(-c3cc(Cl)c[nH]3)no2)CN1C(=O)c1ccc(F)nc1` [Example 9-18, 5-({(2R,5S)-5-[3-(4-chloro-1H-pyrrol-2-yl)-1,2,4-oxadiazol-5-yl]-2-methylpiperidin-1-yl}carbonyl)-2-fluoropyridine], the EC50 is under 1000 nM under setting [1] and 91 nM under setting [2].
On the same counts, the results for `C[C@@H]1CC[C@H](c2noc(-c3ccc(F)cn3)n2)CN1C(=O)c1ccc(F)cc1` [Example 4-4, 5-Fluoro-2-{3-[(3S,6R)-1-(4-fluorobenzoyl)-6-methylpiperidin-3-yl]-1,2,4-oxadiazol-5-yl}pyridine] are under 1000 nM and 210 nM.
On the same counts, the results for `C[C@@H]1CC[C@H](c2noc(-c3ccc(F)cc3)n2)CN1C(=O)c1ccc(F)cc1` [Example 1-16, (2R,5S)-1-(4-fluorobenzoyl)-5-[5-(4-fluorophenyl)-1,2,4-oxadiazol-3-yl]-2-methylpiperidine] are under 1000 nM and 124 nM.
For `C[C@H]1CC[C@@H](c2noc(-c3cc(Cl)c[nH]3)n2)CN1C(=O)c1ccc(F)cc1` [Example 2-3, (2S,5R)-5-[5-(4-chloro-1H-pyrrol-2-yl)-1,2,4-oxadiazol-3-yl]-1-(4-fluorobenzoyl)-2-methylpiperidine] the same measures were under 1000 nM and 486 nM.
